Test results from US12708630B2, “Combined therapy of 4′-thio-5-aza-2′-deoxycytidine and Venetoclax” (PINOTBIO, INC., priority 2021, dated 2026).
Where two headings read alike, the source gives them in different places.

What was measured:
MDS/AML model = assay: AUC exposure versus efficacy in the MDS/AML model; format: in vivo
HCT-116 (colorectal) = HCT-116 (colorectal) xenograft model; format: in vivo, Mouse; details: nude mouse, 1 mg/kg, (4) cycles
Protocol: (§1) The efficacy of Aza-T-dCyd was confirmed by tumor growth curves after administration of Aza-T-dCyd in various solid cancer xenograft models. Aza-T-dCyd at a dose of 1~2 mg/kg was administered repeatedly for 2~6 cycles in QD×5, showing excellent anti-cancer effects (evidenced by test/control (T/C) value≤40%).

NCI-H522 (NSCLC) = NCI-H522 (NSCLC) xenograft model; format: in vivo; details: nude mouse, 2 mg/kg, (6) cycles
Protocol: as §1

[1] = Human PK simulation / human dose projection; details: 16 mg/day human dose
Protocol: The human dose of NTX-301 should be divided by 3 or 4 to adjust the mouse exposure.
The 96 mg/day must be divided by 3 or 4, resulting in 24 to 32 mg/day.
This was a safe and effective dose in mice.
Furthermore, based on the results of the combination with Venetoclax in the mouse model, an effective dose of 0.5 to 1.0 mg/kg was determined, which translates to a human dose of 8 to 16 mg+Venetoclax.

GLP rat Toxicology study = format: in vivo, rats
Protocol: GLP-Tox studies have been conducted in rats and dogs, with 2 cycles of QD×5d at PO.
In the GLP rat Toxicology study, rats received 2.5, 5, and 10 mg/kg of Aza-T-dCyd (15, 30, and 60 mg/m2) per day.

HL-60 AML xenograft = HL-60 AML xenograft model; format: in vivo; details: 2.0 mg/kg
[2] = Pharmacokinetic evaluation in Mice (Table 3); format: in vivo; details: for AUC(0-inf) / AUC(0-t) / Cmax / Tmax / half-life: mouse, in vivo, Mice; for half-life: read-out: T½ (converted)
Protocol: Aza-T-dCyd was administered orally and intravenously at various concentrations to Mice, Rats and Dogs to determine the PK profile.

Nc1ncn([C@H]2CC(O)[C@@H](CO)S2)c(=O)n1 (stereo partly drawn) [Aza-T-dCyd, 4′-thio-5-aza-2′-deoxycytidine]
AUC value at which efficacy is shown (MDS/AML model; MDS/AML model): 60 ng·h/mL
AUC value of best therapeutic efficacy (MDS/AML model; MDS/AML model): 200 to 250 ng·h/mL
AUC of best efficacy relative to the HNSTD (MDS/AML model; most sensitive species): about 25%
AUC of best efficacy relative to the NOAEL value (MDS/AML model; most sensitive species): about 50%
Optimal T/C (%) (test/control) (HCT-116 (colorectal)): 21%
Optimal T/C (%) (test/control) (NCI-H522 (NSCLC)): 31%
human AUC converted to the mouse AUC value (factor of 3-4) [1]: 150 to 200 ng·h/mL
Testicular toxicity, including decreased sperm count (GLP rat Toxicology study; rat): reversible upon discontinuation
Toxicity target organs (GLP rat Toxicology study; rat, 2.5, 5 and 10 mg/kg per day): bone marrow, thymus, heart, and testes
tumor suppression (HL-60 AML xenograft): strong tumor suppression
oral bioavailability ([2]; mice): orally bioavailable
AUC(0-inf) ([2]; Table 3, IV 1 mg/kg): 269 ng·h/mL
AUC(0-t) ([2]; Table 3, IV 1 mg/kg): 257 ng·h/mL
Cmax ([2]; Table 3, IV 1 mg/kg): 341 ng/mL
Tmax ([2]; Table 3, IV 1 mg/kg): 4.98 min
half-life ([2]; Table 3, IV 1 mg/kg): 30.2 min
AUC(0-inf) ([2]; Table 3, PO 0.5 mg/kg): 68.5 ng·h/mL
AUC(0-t) ([2]; Table 3, PO 0.5 mg/kg): 62.4 ng·h/mL
Cmax ([2]; Table 3, PO 0.5 mg/kg): 51.8 ng/mL
Tmax ([2]; Table 3, PO 0.5 mg/kg): 18 min
half-life ([2]; Table 3, PO 0.5 mg/kg): 42.1 min
AUC(0-inf) ([2]; Table 3, PO 1 mg/kg): 112 ng·h/mL
AUC(0-t) ([2]; Table 3, PO 1 mg/kg): 106 ng·h/mL
Cmax ([2]; Table 3, PO 1 mg/kg): 103 ng/mL
Tmax ([2]; Table 3, PO 1 mg/kg): 18 min
half-life ([2]; Table 3, PO 1 mg/kg): 37.7 min
AUC(0-inf) ([2]; Table 3, PO 3 mg/kg): 931 ng·h/mL
AUC(0-t) ([2]; Table 3, PO 3 mg/kg): 919 ng·h/mL
Cmax ([2]; Table 3, PO 3 mg/kg): 576 ng/mL
Tmax ([2]; Table 3, PO 3 mg/kg): 27 min
half-life ([2]; Table 3, PO 3 mg/kg): 49.4 min
AUC(0-inf) ([2]; Table 3, PO 10 mg/kg): 2600 ng·h/mL
AUC(0-t) ([2]; Table 3, PO 10 mg/kg): 2580 ng·h/mL
Cmax ([2]; Table 3, PO 10 mg/kg): 1930 ng/mL
Tmax ([2]; Table 3, PO 10 mg/kg): 27 min
half-life ([2]; Table 3, PO 10 mg/kg): 66.6 min
